Measurements: article PMC7497679, “Structure-based design, synthesis, and evaluation of the biological activity of novel phosphoroorganic small molecule IAP antagonists” (Investigational New Drugs, 2020)
Where two headings read alike, the source gives them in different places. Each block holds one molecule with its values, some of them ahead of it. Peptide text beside a SMILES is read from it.

Target: T1, XIAP BIR3 domain (Homo sapiens, UniProt P98170)
T1 construct: fluorescent probe 4 and the XIAP BIR3 domain (Sino Biological, Beijing, China) were used for all measurements; purchased Sino Biological, Beijing, China
T1 sequence (P98170 252-356 limits assumed): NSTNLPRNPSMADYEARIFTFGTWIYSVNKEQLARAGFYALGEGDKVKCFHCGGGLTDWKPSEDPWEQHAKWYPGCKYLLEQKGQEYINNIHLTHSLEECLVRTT
Assay: Fluorescence polarization inhibition (competition) assay
Type: binding
Details: for inhibition at 50 µM: 0.5 h
Description: The fluorescence polarization assay was performed at r.t. in Corning 384-well black, polystyrene flat bottom plates (Corning, NY, USA) on a Synergy H4 Hybrid Reader (BioTek, Bad Friedrichshall, Germany). For fluorescence polarization measurements, (milipolarization units, mP) 484/20 nm excitation and 528/20 nm emission filters were selected. Phosphate buffer (pH 7.5) supplemented with γ-globulin (100 µg/mL) and NaN3 (0.02% w/v), fluorescent probe 4 and the XIAP BIR3 domain (Sino Biological, Beijing, China) were used for all measurements. All experiments were performed in duplicate. The obtained fluorescence polarization assay data were analyzed with Prism 5.0 Software (GraphPad Software, San Diego, ca.).
After a 15 min incubation at r.t., fluorescent probe 4 (2 nM) was added. The values were measured 30 min after the moment the probe was added. The assay was performed in phosphate buffer with a final DMSO concentration of 1.4% (v/v). […] In order to evaluate the quality and precision of the performed screening assay, we determined the Z´ factor as described by Zhang et al.. The obtained fluorescence polarization values were used to determine the percent inhibition, which was plotted as a function of the protein concentration. The EC50 and Ki values were calculated with GraphPad software (log(agonist) vs. response (variable slope) model) in combination with the web tool developed by Nikolovska-Coleska et al..
Fluorescence polarization inhibition assay and data analysis for 41m and 42m compounds was performed as described in the Material and Methods section of the manuscript. Briefly, 50 nM solution of the BIR3 XIAP protein in polarization buffer was added into phosphoroorganic compound solution (from 50 μM to 0.0537 nM). After 15 min incubation at r.t. the fluorescent probe 4 (2 nM) was added.
The values were read after 30 minutes from the moment the probe was added. The obtained fluorescence polarization values were used to determine the percentage of inhibition which was plotted as a function of the protein concentration (Supplementary Figure S4).
(1 picture or pasted object on this page, not shown here)

[1] = XIAP BIR3 50 nM, fluorescent probe 4 2 nM, read-out: EC50
[2] = antagonist 50 µM, inhibition of protein-probe interaction
[3] = XIAP BIR3 50 nM, fluorescent probe 4 2 nM
[4] = XIAP BIR3 50 nM, fluorescent probe 4 2 nM, read-out: log EC50 (converted)

SMILES: CC(C)[C@H](NC(=O)[C@H](C)N)C(=O)N1CCC[C@H]1C(=O)N[C@@H](Cc1c[nH]c2ccccc12)C(=O)O [Compound 3, H2N-Ala-Val-Pro-Trp-OH, reference compound] (H-AVPW-OH)
EC50 [1]: 0.34 µM

SMILES: CN[C@@H](C)C(=O)N[C@H](C(=O)N1CCC[C@H]1C(=O)NCP(=O)(C(C)(C)C)C(C)(C)C)C(C)C [Compound 5]
inhibition at 50 µM [2]: 63.2%
Ki [3]: 14.7 µM
EC50 [1]: 29.6 µM
EC50 [4]: 29.6 µM

SMILES: CN[C@@H](C)C(=O)N[C@H](C(=O)N1CCC[C@H]1C(=O)NCP(=O)(C(C)(C)C)C(C)(C)C)C1CCCCC1 [Compound 6]
inhibition at 50 µM [2]: 72%
Ki [3]: 9.87 µM
EC50 [1]: 19.9 µM
EC50 [4]: 19.9 µM

SMILES: CN[C@@H](C)C(=O)N[C@H](C(=O)N1CCC[C@H]1C(=O)NCP(=O)(C(C)C)C(C)C)C(C)C [Compound 7]
inhibition at 50 µM [2]: 32%

SMILES: CN[C@@H](C)C(=O)N[C@H](C(=O)N1CCC[C@H]1C(=O)NCP(=O)(C(C)C)C(C)C)C1CCCCC1 [Compound 8]
inhibition at 50 µM [2]: 41.3%

SMILES: CN[C@@H](C)C(=O)N[C@H](C(=O)N1CCC[C@H]1C(=O)NCP(=O)(C1CCCCC1)C1CCCCC1)C(C)C [Compound 9]
inhibition at 50 µM [2]: ~25%

SMILES: CN[C@@H](C)C(=O)N[C@H](C(=O)N1CCC[C@H]1C(=O)NCP(=O)(C1CCCCC1)C1CCCCC1)C1CCCCC1 [Compound 10]
inhibition at 50 µM [2]: ~25%

SMILES: CN[C@@H](C)C(=O)N[C@H](C(=O)N1CCC[C@H]1C(=O)NCP(=O)(c1ccccc1)c1ccccc1)C(C)C [Compound 11]
inhibition at 50 µM [2]: 63.6%
Ki [3]: 14.5 µM
EC50 [1]: 29.3 µM
EC50 [4]: 29.4 µM

The next lines start with the values.

Ki [3]: 13 µM
log EC50 [3]: 1.420 ± 0.051 µM
EC50 [1]: 26.3 µM
% Inh (50 µM) [2]: 67.1%
SMILES: CN[C@@H](C)C(=O)N[C@H](C(=O)N1CCC[C@H]1C(=O)NCP(=O)(c1ccccc1)c1ccccc1)C1CCCCC1 [Compound 12]

inhibition at 50 µM [2]: 61.6%
Ki [3]: 15.3 µM
EC50 [1]: 30.8 µM
EC50 [4]: 30.8 µM
SMILES: CN[C@@H](C)C(=O)N[C@H](C(=O)N1CCC[C@H]1C(=O)NCP(=O)(c1ccc(C)cc1)c1ccc(C)cc1)C(C)C [Compound 15, (S)-N-((di-p-tolylphosphoryl)methyl)-1-((S)-3-methyl-2-((S)-2-(methylamino)propanamido)butanoyl)pyrrolidine-2-carboxamide]

inhibition at 50 µM [2]: 57%
Ki [3]: 20 µM
EC50 [1]: 40.3 µM
EC50 [4]: 40.4 µM
SMILES: CN[C@@H](C)C(=O)N[C@H](C(=O)N1CCC[C@H]1C(=O)NCP(=O)(c1ccc(C)cc1)c1ccc(C)cc1)C1CCCCC1 [Compound 16, (S)-1-((S)-2-cyclohexyl-2-((S)-2-(methylamino)propanamido)acetyl)-N-((di-p-tolylphosphoryl)methyl)pyrrolidine-2-carboxamide]

inhibition at 50 µM [2]: 74%
Ki [3]: 9.55 µM
EC50 [1]: 19.3 µM
EC50 [4]: 19.3 µM
SMILES: CN[C@@H](C)C(=O)N[C@H](C(=O)N1CCC[C@H]1C(=O)NC(C)P(=O)(c1ccc(C)cc1)c1ccc(C)cc1)C1CCCCC1 (stereo partly drawn) [Compound 17, (2S)-1-((S)-2-cyclohexyl-2-((S)-2-(methylamino)propanamido)acetyl)-N-(1-(di-p-tolylphosphoryl)ethyl)pyrrolidine-2-carboxamide]

inhibition at 50 µM [2]: 62%
Ki [3]: 14.5 µM
EC50 [1]: 29.3 µM
EC50 [4]: 29.2 µM
SMILES: CN[C@@H](C)C(=O)N[C@H](C(=O)N1CCC[C@H]1C(=O)NCP(=O)(c1ccccc1C)c1ccccc1C)C(C)C [Compound 18, (S)-N-((di-o-tolylphosphoryl)methyl)-1-((S)-3-methyl-2-((S)-2-(methylamino)propanamido)butanoyl)pyrrolidine-2-carboxamide]

inhibition at 50 µM [2]: 66.2%
Ki [3]: 13.9 µM
EC50 [1]: 28 µM
EC50 [4]: 28.1 µM
SMILES: CN[C@@H](C)C(=O)N[C@H](C(=O)N1CCC[C@H]1C(=O)NCP(=O)(c1ccccc1C)c1ccccc1C)C1CCCCC1 [Compound 19, (S)-1-((S)-2-cyclohexyl-2-((S)-2-(methylamino)propanamido)acetyl)-N-((di-o-tolylphosphoryl)methyl)pyrrolidine-2-carboxamide]
